Test results taken from article PMC9820316, “Novel Arylpiperazine Derivatives of Salicylamide with α1-Adrenolytic Properties Showed Antiarrhythmic and Hypotensive Properties in Rats” (International Journal of Molecular Sciences, 2022).
Marks after values point to notes of the source that are not given here.

Assays:
[1] = test system: adrenaline-induced arrhythmia model in rats; assay: Prophylactic antiarrhythmic activity in adrenaline-induced arrhythmia; type: in vivo, rat; settings: for Blocks / Bradycardia / Extrasystoles / Mortality: number of animals with event
[2] = test system: pressor response to methoxamine in rats; assay: Influence on blood vasopressor response to methoxamine in rats; type: in vivo, rat; settings: 5 mg/kg iv, methoxamine 150 μg/kg before and 5 min after compound
Procedure, shortened: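 Anaesthetised (thiopental 75 mg/kg ip) normotensive Wistar rats, carotid artery cannulated. Pressor response to methoxamine (150 µg/kg, iv) recorded before and 5 min after test compound, given at its lowest hypotensive dose, after 15-min stabilisation.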

α2-adrenergic receptors = assay: α2-adrenoceptor radioligand binding assay ([3H]-clonidine, rat cortex); settings: rat cortex tissue, mean ± SEM, n.a. = did not bind at 10^−5 M
Experimental: The α1- and α2-adrenoceptor radioligand binding assays were performed on the rat cerebral cortex using previously described methods. […] The brains were homogenized using the ULTRA-TURRAX homogenizer in 10 mL of an ice-cold 50 mM Tris-HCl buffer (pH 7.6). The homogenates were centrifuged at 20,000× g for 20 min (0–4 °C). Subsequently, the cell pellet was resuspended in the Tris–HCl buffer and centrifuged again. Radioligand binding assays were carried out in plates (MultiScreen/Millipore). The final incubation mixture, with a volume of 300 μL, consisted of 240 μL of the tissue suspension, 30 μL of the radioligand solution, and 30 μL of the buffer containing 7–8 concentrations of the studied compounds. In order to measure the unspecific binding, 10 μM phentolamine (for [^3H]-prazosin) or 10 μM clonidine (for [^3H]-clonidine) were utilized. The incubation was completed by rapid filtration through Whatman GF/C filters using a vacuum manifold (Millipore). The filters were then washed twice with the assay buffer and placed in scintillation vials with a liquid scintillation cocktail. Radioactivity was measured in a WALLAC 1409 DSA liquid scintillation counter (Perkin Elmer, USA). All the assays were performed in duplicates, and the inhibitory constants (Ki) were calculated.

[3] = test system: calcium chloride-induced arrhythmia model in rats; assay: Prophylactic antiarrhythmic activity in calcium chloride-induced arrhythmia; type: in vivo, rat; settings: 5 mg/kg iv 15 min before calcium chloride 140 mg/kg; number of animals with event
[4] = test system: adrenaline-induced arrhythmia model in rats; assay: Therapeutic antiarrhythmic activity in adrenaline-induced arrhythmia; settings: 5 mg/kg iv immediately after adrenaline 20 µg/kg; number of animals with event
normal ECG in rats = assay: Effect on a normal electrocardiogram in rats; type: in vivo, rat; settings: 5 mg/kg iv; for HR—heart rate / PQ interval / QRS complex / QTc (Bazzett's formula): mean ± SD; for PQ interval / QRS complex / QTc (Bazzett's formula): in ms (unit assumed)
Experimental: The procedure was performed to exclude the negative effects of the tested compounds on the normal ECG, according to the method described earlier. […] Firstly, animals were anesthetized with thiopental (75 mg/kg ip). […] The influence on PQ, QTc interval, QRS complex, and heart rate was evaluated. The Bazzett’s formula: QTc = QT/√RR was used to calculate QTc. All the studied compounds were administered at a dose of 5 mg/kg.

α1-adrenergic receptors = assay: α1-adrenoceptor radioligand binding assay ([3H]-prazosin, rat cortex); settings: rat cortex tissue, mean ± SEM
Procedure, shortened: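 Rat cerebral cortex membranes in 50 mM Tris-HCl pH 7.6, with 7–8 compound concentrations in duplicate. Nonspecific binding defined by 10 μM phentolamine for [3H]-prazosin (α1) or 10 μM clonidine for [3H]-clonidine (α2). Filtration and scintillation counting; Ki calculated.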

normotensive rats = assay: Influence on blood pressure in the normotensive rats; type: in vivo, rat; settings: for DBP—diastolic blood pressure / SBP—systolic blood pressure: mean ± SD
Experimental: The experiment was performed according to the method described earlier. Normotensive Wistar rats were anesthetized with thiopental (75 mg/kg ip). The right carotid artery was cannulated with a polyethylene tube filled with heparin solution, using a Datamax apparatus (Columbus Instruments, Columbus, OH, USA). After 15 min of the stabilization period, the studied compounds were administered iv, and their effect on systolic and diastolic blood pressure was evaluated (Figure 4A).

[5] = 0.25 mg/kg iv 15 min before adrenaline 20 μg/kg
[6] = 0.5 mg/kg iv 15 min before adrenaline 20 μg/kg
[7] = 1 mg/kg iv 15 min before adrenaline 20 μg/kg
[8] = 0 min (prior to administration)
[9] = 2.5 mg/kg iv, 0 min (before administration)
[10] = 5.0 mg/kg iv, 0 min (before administration)

Cl.NC(=O)c1ccccc1OCCCCCCN1CCN(c2cccc(Cl)c2)CC1 [JJGW03, 2-{6-[4-(3-chlorophenyl)piperazin-1-ylo]hexoxy}benzamide hydrochloride]
Blocks [1, 5]: 5/5 | Bradycardia [1, 5]: 5/5 | Extrasystoles [1, 5]: 5/5 | Mortality [1, 5]: 4/5 | Blocks [1, 6]: 5/5 | Bradycardia [1, 6]: 4/5 | Extrasystoles [1, 6]: 4/5 | Mortality [1, 6]: 4/5 | Blocks [1, 7]: 4/5 | Bradycardia [1, 7]: 1/5 | Extrasystoles [1, 7]: 4/5 | Mortality [1, 7]: 0/5 | ED50 ([1]; prophylactic, iv 15 min before adrenaline 20 μg/kg, confidence limits in brackets (Litchfield and Wilcoxon)): 0.36 (0.08–1.56) mg/kg | attenuation of the methoxamine pressor response [2]: 99% | Adrenergic Receptors—pKi α2 (α2-adrenergic receptors): 5.76 ± 0.02 | Blocks [3]: 6/6 | Bradycardia [3]: 6/6 | Extrasystoles [3]: 6/6 | Fibrillations [3]: 4/6 | Mortality [3]: 5/6 | Blocks [4]: 3/5 | Bradycardia [4]: 1/5 | Mortality [4]: 0/5 | effect on the heart rate during the ECG recording (normal ECG in rats): did not affect the heart rate | HR—heart rate (normal ECG in rats; [8]): 286.6 ± 45.7 | PQ interval (normal ECG in rats; [8]): 41.6 ± 2.3 | QRS complex (normal ECG in rats; [8]): 39.6 ± 4.7 | QTc (Bazzett's formula) (normal ECG in rats; [8]): 177.6 ± 12.0 | HR—heart rate (normal ECG in rats; 5 min): 289.1 ± 20.2 | PQ interval (normal ECG in rats; 5 min): 41.4 ± 1.6 | QRS complex (normal ECG in rats; 5 min): 39.3 ± 3.9 | QTc (Bazzett's formula) (normal ECG in rats; 5 min): 188.7 ± 16.3 | HR—heart rate (normal ECG in rats; 10 min): 279.9 ± 15.7 | PQ interval (normal ECG in rats; 10 min): 40.2 ± 1.7 | QRS complex (normal ECG in rats; 10 min): 40.8 ± 7.1 | QTc (Bazzett's formula) (normal ECG in rats; 10 min): 174.8 ± 7.3 | HR—heart rate (normal ECG in rats; 15 min): 271.9 ± 18.2 | PQ interval (normal ECG in rats; 15 min): 40.0 ± 0.5 | QRS complex (normal ECG in rats; 15 min): 40.4 ± 5.2 | QTc (Bazzett's formula) (normal ECG in rats; 15 min): 178.1 ± 15.0 | Adrenergic Receptors—pKi α1 (α1-adrenergic receptors): 8.11 ± 0.01 | DBP—diastolic blood pressure (normotensive rats; [9]): 89.3 ± 15.6 mmHg | SBP—systolic blood pressure (normotensive rats; [9]): 123.8 ± 17.4 mmHg | DBP—diastolic blood pressure (normotensive rats; 2.5 mg/kg iv, 5 min): 83.3 ± 12.8 mmHg | SBP—systolic blood pressure (normotensive rats; 2.5 mg/kg iv, 5 min): 112.5 ± 13.8 mmHg | DBP—diastolic blood pressure (normotensive rats; 2.5 mg/kg iv, 10 min): 84.8 ± 14.7 mmHg | SBP—systolic blood pressure (normotensive rats; 2.5 mg/kg iv, 10 min): 109.8 ± 13.5 mmHg | DBP—diastolic blood pressure (normotensive rats; 2.5 mg/kg iv, 20 min): 86.0 ± 15.8 mmHg | SBP—systolic blood pressure (normotensive rats; 2.5 mg/kg iv, 20 min): 108.8 ± 15.6 mmHg | DBP—diastolic blood pressure (normotensive rats; 2.5 mg/kg iv, 30 min): 85.5 ± 14.7 mmHg | SBP—systolic blood pressure (normotensive rats; 2.5 mg/kg iv, 30 min): 111.8 ± 20.5 mmHg | DBP—diastolic blood pressure (normotensive rats; 2.5 mg/kg iv, 40 min): 83.7 ± 15.6 mmHg | SBP—systolic blood pressure (normotensive rats; 2.5 mg/kg iv, 40 min): 111.2 ± 22.3 mmHg | DBP—diastolic blood pressure (normotensive rats; 2.5 mg/kg iv, 50 min): 81.2 ± 15.0 mmHg | SBP—systolic blood pressure (normotensive rats; 2.5 mg/kg iv, 50 min): 107.7 ± 19.7 mmHg | DBP—diastolic blood pressure (normotensive rats; 2.5 mg/kg iv, 60 min): 79.5 ± 15.4 mmHg | SBP—systolic blood pressure (normotensive rats; 2.5 mg/kg iv, 60 min): 109.2 ± 21.9 mmHg | DBP—diastolic blood pressure (normotensive rats; [10]): 101.5 ± 6.1 mmHg | SBP—systolic blood pressure (normotensive rats; [10]): 128.5 ± 8.6 mmHg | decrease of the diastolic blood pressure (normotensive rats; 5 mg/kg iv, 5th min after administration): 18% | decrease of the diastolic blood pressure (normotensive rats; 5 mg/kg iv, 10th min after administration): 20% | DBP—diastolic blood pressure (normotensive rats; 5.0 mg/kg iv, 5 min): 83.2 ± 5.0 ^a mmHg | SBP—systolic blood pressure (normotensive rats; 5.0 mg/kg iv, 5 min): 108.0 ± 6.6 ^d mmHg | DBP—diastolic blood pressure (normotensive rats; 5.0 mg/kg iv, 10 min): 81.2 ± 4.0 ^a mmHg | SBP—systolic blood pressure (normotensive rats; 5.0 mg/kg iv, 10 min): 104.3 ± 6.3 ^d mmHg | DBP—diastolic blood pressure (normotensive rats; 5.0 mg/kg iv, 20 min): 82.0 ± 4.2 mmHg | SBP—systolic blood pressure (normotensive rats; 5.0 mg/kg iv, 20 min): 101.3 ± 4.5 ^d mmHg | DBP—diastolic blood pressure (normotensive rats; 5.0 mg/kg iv, 30 min): 83.5 ± 4.3 mmHg | SBP—systolic blood pressure (normotensive rats; 5.0 mg/kg iv, 30 min): 102.3 ± 6.9 ^d mmHg | DBP—diastolic blood pressure (normotensive rats; 5.0 mg/kg iv, 40 min): 85.5 ± 5.8 mmHg | SBP—systolic blood pressure (normotensive rats; 5.0 mg/kg iv, 40 min): 104.3 ± 3.9^b mmHg | DBP—diastolic blood pressure (normotensive rats; 5.0 mg/kg iv, 50 min): 86.7 ± 6.0 mmHg | SBP—systolic blood pressure (normotensive rats; 5.0 mg/kg iv, 50 min): 106.0 ± 7.9 ^c mmHg | DBP—diastolic blood pressure (normotensive rats; 5.0 mg/kg iv, 60 min): 87.5 ± 6.3 mmHg | SBP—systolic blood pressure (normotensive rats; 5.0 mg/kg iv, 60 min): 107.3 ± 6.1 ^b mmHg | decrease of the systolic blood pressure (normotensive rats; 5 mg/kg iv, from the 5th to 60th min after administration): 16–21%
